Read-outs that look alike come from different tables or passages of the source.
Assays:
mouse GnRH receptor = target: T1, mouse GnRH receptor (Mus musculus, UniProt Q01776); test: Radioligand binding, 125I-GnRH-A, 293 cells expressing mouse GnRH receptors; settings: read-out: mGnRH IC50
T1 construct: expressed in transfected cells; host or cells: 293 cells
T1 sequence (Q01776 1-327): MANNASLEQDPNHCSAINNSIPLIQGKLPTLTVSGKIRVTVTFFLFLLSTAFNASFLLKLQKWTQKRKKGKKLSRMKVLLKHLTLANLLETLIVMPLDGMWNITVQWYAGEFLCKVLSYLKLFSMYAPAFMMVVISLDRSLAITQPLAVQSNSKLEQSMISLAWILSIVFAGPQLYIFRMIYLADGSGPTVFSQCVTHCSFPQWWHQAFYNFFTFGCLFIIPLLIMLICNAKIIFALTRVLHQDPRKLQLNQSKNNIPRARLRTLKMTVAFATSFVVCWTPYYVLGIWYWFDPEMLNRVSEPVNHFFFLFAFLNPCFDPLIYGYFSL
Method in brief: (§1)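 Bound label captured on 0.1% polyethyleneimine-treated GF/C filters, washed three times with PBS, counted. IC50 derived; identical set-up for every species.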

[1] = Metabolism rate, pmol/min/mg at 1 μM, rat female; type: in vitro ADME; settings: 1 μM compound
rat GnRH receptor = target: T2, rat GnRH receptor (Rattus norvegicus, UniProt P30969); test: Radioligand binding, 125I-GnRH-A, rat pituitary membranes; set-up: membranes were prepared from rat pituitary; from tissue; host or cells: rat pituitary; settings: read-out: rGnRH IC50
T2 sequence (P30969 1-327): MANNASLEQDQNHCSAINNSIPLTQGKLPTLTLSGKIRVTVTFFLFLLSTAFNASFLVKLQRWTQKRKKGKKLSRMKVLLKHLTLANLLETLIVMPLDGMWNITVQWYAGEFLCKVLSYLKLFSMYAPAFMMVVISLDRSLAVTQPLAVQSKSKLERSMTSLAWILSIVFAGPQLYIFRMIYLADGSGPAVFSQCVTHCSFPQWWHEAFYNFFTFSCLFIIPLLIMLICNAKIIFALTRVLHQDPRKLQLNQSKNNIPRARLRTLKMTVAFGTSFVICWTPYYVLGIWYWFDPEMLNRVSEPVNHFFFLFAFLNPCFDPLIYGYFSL
Method in brief: as §1

human GnRH receptor = target: T3, human GnRH receptor (Homo sapiens, UniProt P30968); test: Radioligand binding, 125I-GnRH-A displacement, membranes of HEK 293 cells with human GnRH receptor
T3 construct: expressed in transfected cells; host or cells: HEK 293 (hGnRH-R/293, from Dr. Stuart Sealfon)
T3 sequence (P30968 1-328): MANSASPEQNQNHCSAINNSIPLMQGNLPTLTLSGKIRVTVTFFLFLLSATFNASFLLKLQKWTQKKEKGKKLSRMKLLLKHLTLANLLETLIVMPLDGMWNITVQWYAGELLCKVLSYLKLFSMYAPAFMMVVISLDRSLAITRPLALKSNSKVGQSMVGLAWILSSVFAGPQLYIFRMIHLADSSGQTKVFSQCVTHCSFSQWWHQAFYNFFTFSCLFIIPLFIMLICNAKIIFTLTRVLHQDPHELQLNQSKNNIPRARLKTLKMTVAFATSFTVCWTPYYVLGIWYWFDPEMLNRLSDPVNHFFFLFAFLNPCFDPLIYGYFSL
Method in brief: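 Bound tracer was separated by filtration through polyethyleneimine-soaked GF/C filters and counted by liquid scintillation. IC50 from curve fitting; other species were tested under the same conditions.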

[2] = Metabolism rate, pmol/min/mg at 1 μM, rat male; type: in vitro ADME; settings: 1 μM compound
[3] = Pharmacokinetic studies / bioavailability in rats; type: in vivo, rat; settings: for Cmax / Tmax / half-life: rat, plasma; for Cmax / Tmax: po, p.o. 10 mg/kg; for Cmax / Tmax / Fp.o.: 5 mg/ml solution in 10% DMSO 10% cremophor 80% saline
[4] = Metabolism rate, pmol/min/mg at 1 μM, human; type: in vitro ADME; settings: 1 μM compound
bovine GnRH receptor = target: T4, bovine GnRH receptor (Bos taurus, UniProt P32236); test: Radioligand binding, 125I-GnRH-A, bovine pituitary membranes; settings: read-out: bGnRH IC50
T4 construct: membranes were prepared from bovine pituitary; from tissue; host or cells: bovine pituitary
T4 sequence (P32236 1-328): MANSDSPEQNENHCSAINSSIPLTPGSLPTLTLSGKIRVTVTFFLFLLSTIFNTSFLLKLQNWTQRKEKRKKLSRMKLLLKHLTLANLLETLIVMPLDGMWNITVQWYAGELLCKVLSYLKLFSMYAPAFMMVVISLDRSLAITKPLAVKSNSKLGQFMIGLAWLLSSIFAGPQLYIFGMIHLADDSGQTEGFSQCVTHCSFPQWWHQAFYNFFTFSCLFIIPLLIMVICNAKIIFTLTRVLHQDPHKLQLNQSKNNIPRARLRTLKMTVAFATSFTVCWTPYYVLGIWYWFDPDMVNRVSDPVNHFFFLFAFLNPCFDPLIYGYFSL
Procedure: All compounds were diluted in 1% DMSO (final assay concentration) in binding assay buffer. […] Reactions were terminated by rapid filtration onto 96-well Packard GF/C filters soaked in 0.1% polyethyleneimine. Filters were washed three times with PBS buffer, dried and counted on a Packard Topcount by liquid scintillation counting.
Assay conditions were identical for assessing compound activities at other species. […] IC50 values for control peptides and test compounds were calculated utilizing GraphPad Prism™ software.
The reaction mixture was vortexed and incubated for 1 min at room temperature. After one min, the mixture was vortexed and allowed to incubate for an additional minute. 2 ml of 0.5 M acetic acid/1% BSA was added to the reaction tube and the mixture was added to a C18 Sep-Pak cartridge. The cartridge was washed with subsequent washes of 5 ml H2O and 5 ml 0.5M acetic acid and then eluted with 5×1 ml of 60% CH3CN/40% 0.5M acetic acid. The eluate was diluted with 3× volume of HPLC buffer A (0.1% TFA in H2O) and loaded onto a C18 column. […] The radioactive fractions (750 ed/fraction) are collected into clean polypropylene tubes containing 100 μl of 10% BSA. Fractions were assessed for biological activity by radioligand binding.

[5] = second value marked * (mostly in parentheses), asterisk not explained, read-out: hGnRH IC50, value marked *

With `COc1cc(C)c(Cl)c(C)c1Cc1ccc(C(=O)Nc2c(OC)cccc2OC)o1` [Compound 233] the IC50 (mouse GnRH receptor) was 68 nM, the “Rat female pmol/min/mg 1 μM” value [1] was 338 pmol/min/mg and the IC50 (rat GnRH receptor) was 51 nM. For the same molecule, the IC50 (human GnRH receptor; read-out: hGnRH IC50) was 60 nM, the “Rat male pmol/min/mg 1 μM” value [2] was 2988 pmol/min/mg and the Cmax ([3]; female, 10 mg/kg, rat female) was 340 nM. For the same molecule, the Tmax ([3]; female, 10 mg/kg, rat female) was 1 h, the half-life ([3]; female, rat female) was 1.4 h and the Fp.o. ([3]; rat female) was 34% (10 mg/kg)^10. For the same molecule, the “Human pmol/min/mg 1 μM” value [4] was 773 pmol/min/mg.
For `Cc1cc2c(cc1Cc1ccc(C(=O)NCc3ccc(CNc4ncccn4)cc3)o1)C(C)(C)CCC2(C)C` [Compound 137], the IC50 (mouse GnRH receptor) was 360 nM, the “Rat female pmol/min/mg 1 μM” value [1] was 182 pmol/min/mg and the IC50 (rat GnRH receptor) was 400 nM. The IC50 (human GnRH receptor; read-out: hGnRH IC50) was 200 nM, the Cmax ([3]; female, 10 mg/kg, rat female) was 230 nM and the Tmax ([3]; female, 10 mg/kg, rat female) was 1 h. The half-life ([3]; female, rat female) was 7.9 h, the Fp.o. ([3]; rat female) was 1% (10 mg/kg)^10 and the “Human pmol/min/mg 1 μM” value [4] was 594 pmol/min/mg.
With `COc1cc(NS(C)(=O)=O)c(NC(=O)c2ccc(Cc3cc4c(cc3C)C(C)(C)CCC4(C)C)o2)c(OC)c1` [Compound 228] the IC50 (mouse GnRH receptor) was 14 nM, the “Rat female pmol/min/mg 1 μM” value [1] was 227 pmol/min/mg and the IC50 (rat GnRH receptor) was 57 nM. For the same molecule, the IC50 (human GnRH receptor; read-out: hGnRH IC50) was 27 nM, the “Rat male pmol/min/mg 1 μM” value [2] was 320 pmol/min/mg and the Cmax ([3]; female, 10 mg/kg, rat female) was 70 nM. For the same molecule, the Tmax ([3]; female, 10 mg/kg, rat female) was 0.5 h, the half-life ([3]; female, rat female) was 2.4 h and the Fp.o. ([3]; rat female) was 2% (10 mg/kg)^10. The “Human pmol/min/mg 1 μM” value [4] was 641 pmol/min/mg.
For `CCOc1cccc(OCC)c1NC(=O)c1ccc(Cc2cc3c(cc2C)C(C)(C)CCC3(C)C)o1` [Compound 194], the IC50 (mouse GnRH receptor) was 14 nM, the “Rat female pmol/min/mg 1 μM” value [1] was 205 pmol/min/mg and the IC50 (rat GnRH receptor) was 35 nM. The IC50 (human GnRH receptor; read-out: hGnRH IC50) was 18 nM, the “Rat male pmol/min/mg 1 μM” value [2] was 5978 pmol/min/mg and the “Human pmol/min/mg 1 μM” value [4] was 750 pmol/min/mg.
With `COc1cc2c(cc1Cc1ccc(C(=O)NCc3cccc(CNc4ccnc(NC[C@H]5CCCO5)n4)c3)o1)C(C)(C)CCC2(C)C` (stereo in doubt) [Compound 199] the IC50 (mouse GnRH receptor) was 15 nM, the “Rat female pmol/min/mg 1 μM” value [1] was 181 pmol/min/mg and the IC50 (rat GnRH receptor) was 9.6 nM. The IC50 (human GnRH receptor; read-out: hGnRH IC50) was 92 nM, the “Rat male pmol/min/mg 1 μM” value [2] was 3387 pmol/min/mg and the Cmax ([3]; female, 10 mg/kg, rat female) was 80 nM. The Tmax ([3]; female, 10 mg/kg, rat female) was 4 h, the half-life ([3]; female, rat female) was 1.5 h and the Fp.o. ([3]; rat female) was 10% (10 mg/kg)^10. The “Human pmol/min/mg 1 μM” value [4] was 181 pmol/min/mg.
In the case of `COc1cc(OC)c(NC(=O)c2ccc(Cc3cc4c(cc3C)OCCC4(C)C)o2)c(OC)c1` [Compound 221], the IC50 (mouse GnRH receptor) is reported as 9.2 nM, the “Rat female pmol/min/mg 1 μM” value [1] is reported as 223 pmol/min/mg and the IC50 (rat GnRH receptor) is reported as 11 nM. For the same molecule, the IC50 (human GnRH receptor; read-out: hGnRH IC50) was 15 nM, the “Rat male pmol/min/mg 1 μM” value [2] was 528 pmol/min/mg and the Cmax ([3]; female, 10 mg/kg, rat female) was 340 nM. The Tmax ([3]; female, 10 mg/kg, rat female) was 1 h, the half-life ([3]; female, rat female) was 3 h and the Fp.o. ([3]; rat female) was 41% (10 mg/kg)^10. For the same molecule, the “Human pmol/min/mg 1 μM” value [4] was 116 pmol/min/mg.
For `Cc1ccc(C(C)(C)C)cc1Cc1ccc(C(=O)Nc2ccc3[nH]ccc3c2)o1` [Compound 207], the “Rat female pmol/min/mg 1 μM” value [1] was 159 pmol/min/mg, the IC50 (human GnRH receptor; read-out: hGnRH IC50) was 200 nM and the “Rat male pmol/min/mg 1 μM” value [2] was 1236 pmol/min/mg. The Cmax ([3]; female, 10 mg/kg, rat female) was 2810 nM, the Tmax ([3]; female, 10 mg/kg, rat female) was 1 h and the half-life ([3]; female, rat female) was 1.6 h. The Fp.o. ([3]; rat female) was 41% (10 mg/kg)^10 and the “Human pmol/min/mg 1 μM” value [4] was 157 pmol/min/mg.
For `COc1cc(OC)c(NC(=O)c2ccc(Cc3c(C)ccc4c3OCCC4(C)C)o2)c(OC)c1` [Compound 222], the IC50 (mouse GnRH receptor) was 65 nM, the “Rat female pmol/min/mg 1 μM” value [1] was 167 pmol/min/mg and the IC50 (rat GnRH receptor) was 78 nM. The IC50 (human GnRH receptor; read-out: hGnRH IC50) was 110 nM, the “Rat male pmol/min/mg 1 μM” value [2] was 575 pmol/min/mg and the Cmax ([3]; female, 10 mg/kg, rat female) was 810 nM. The Tmax ([3]; female, 10 mg/kg, rat female) was 1.5 h, the half-life ([3]; female, rat female) was 3.2 h and the Fp.o. ([3]; rat female) was 54% (10 mg/kg)^10. For the same molecule, the “Human pmol/min/mg 1 μM” value [4] was 115 pmol/min/mg.
`COc1ccc(CNC(=O)c2ccc(Cc3cc4c(cc3C)C(C)(C)CCC4(C)C)o2)cc1` [Compound 42] showed an IC50 (mouse GnRH receptor) of 280 nM, an IC50 (rat GnRH receptor) of 100 nM and an IC50 (human GnRH receptor; read-out: hGnRH IC50) of 75 nM. The IC50 (human GnRH receptor; [5]) was 65 nM, the “Rat male pmol/min/mg 1 μM” value [2] was 1387 pmol/min/mg and the half-life ([3]; male, iv, 10 mg/kg, rat male) was 0.967 h. For the same molecule, the “Human pmol/min/mg 1 μM” value [4] was 361 pmol/min/mg and the IC50 (bovine GnRH receptor) was 1780 nM.
Work on `Cc1cc2c(cc1Cc1ccc(C(=O)NCCOc3ccccc3)o1)C(C)(C)CCC2(C)C` [Compound 47] yielded an IC50 (mouse GnRH receptor) of 240 nM, an IC50 (rat GnRH receptor) of 130 nM and an IC50 (human GnRH receptor; read-out: hGnRH IC50) of 230 nM. The IC50 (human GnRH receptor; [5]) was 80 nM, the “Rat male pmol/min/mg 1 μM” value [2] was 2198 pmol/min/mg and the half-life ([3]; male, iv, 10 mg/kg, rat male) was 1.5 h. The “Human pmol/min/mg 1 μM” value [4] was 392 pmol/min/mg and the IC50 (bovine GnRH receptor) was 1920 nM.
